We go through two compounds from patent US5488051A, “Substituted 5,6-dihydro-5-oxo-1,4-dithiino-(2,3-d)-pyridazine-2,3-dicarbonitriles, compositions containing them and their use as antimicrobials” (The Dow Chemical Company, priority 1994, dated 1996).

SMILES strings stand for the structures. Converted amounts (≈) assume the structure as drawn. Like-named read-outs stand apart in the source and are kept apart here.

The test system of assay [1] is Enterobacter aerogenes (Ea). Put plainly: MIC for Enterobacter aerogenes, nutrient agar. It counts as cell-based, Enterobacter aerogenes ATCC 13048. Conditions: Klebsiella aerogenes, nutrient agar, 30° C., 48 hours, read-out: Minimum Inhibitory Concentration (MIC), Ea. The procedure, abridged: (§1)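 Nutrient agar, pH 6.8 or 8.2; cpd 1–500 ppm final in agar (from 1% acetone/water soln), plates dried 24 h; inoculum 10^8 CFU/mL via Steer's replicator; 30° C, 48 h; growth/no growth read.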

Assay [2] relates to Klebsiella pneumonias (Kp). As to the kind of experiment: MIC for Klebsiella pneumonias, nutrient agar. It counts as cell-based, Klebsiella pneumonias ATCC 8308. To be noted: 30° C., 48 hours, read-out: Minimum Inhibitory Concentration (MIC), Kp. The procedure, abridged:
as §1

Assay [3] deals with Staphylococcus aureus (Sa). As to the kind of experiment: MIC for Staphylococcus aureus, nutrient agar. To be noted: 30° C., 48 hours, read-out: Minimum Inhibitory Concentration (MIC), Sa. Type of assay: cell-based, Staphylococcus aureus ATCC 6538. The procedure, abridged:
as §1

For another assay, the system named is marine organism growth. Put plainly: Marine antifouling rating of coated test panels exposed to marine environment. Also noted: species or system marine organisms. To be noted: scale 10 (completely free of growth) to 0 (completely covered); for Marine Antifouling Rating, 10 Week Test, Bottom Panel / Marine Antifouling Rating, 10 Week Test, Top Panel: 10 weeks; for Marine Antifouling Rating, 10 Week Test, Top Panel: untreated Control 7. The procedure: Test panels are prepared from clear, rigid polyvinyl chloride film that is 0.381×10^-3 m thick and has one textured surface. The test panels are 0.1524 m by 0.1524 m squares that have 0.00635 m holes punched at corners on 0.127 m centers. A 0.102 square template, with a 0.067 m diameter hole at the center, is attached to the center of the textured surface of the test panels.
A candidate marine antifoulant compound (1.0 g) is stirred into a resinous latex binder (9.0 g). A portion of the compound/binder mixture (1.5 g) is added to the center of the test panel and uniformly spread over the circular area inside the template.
Water is added dropwise as needed to properly spread the compound/binder mixture. The template prevents the compound/binder mixture from spreading beyond the uncovered area. The test panel is allowed to sit for between ten to thirty minutes until the edge of the spread compound/binder mixture has dried. The template is then removed. The test panel is then allowed to dry for 8 to 12 hours at room temperature.
Two test panels are prepared for each candidate marine antifoulant compound. Two control test panels are also prepared by only treating with the resinous latex binder. One test panel of each candidate marine […] compound is attached over a white background to the topside of an exposure support apparatus. The second test panel is attached over a black background to the underside of the exposure support apparatus. The exposure support apparatus is placed horizontally 0.0254 m under a marine surface with the white background topside facing up. The exposure support apparatus is exposed to the marine environment for both 10 and 20 weeks during which time the control test panels become substantially covered with mature marine organism growth on both the topside and underside exposures.
After being removed from the exposure support apparatus, each test panel is inspected and rated for marine organism growth on both the treated and untreated areas of the test panel. The marine organisms present on the treated and untreated areas are noted. The presence of algae spores and bacterial slime are noted but not included in rating each test panel. The test panels are rated on a scale from 10 (representing completely free of marine organism growth) to 0 (representing completely covered with marine organism growth).
In Table V, the marine antifouling rating values for some of the compounds listed in Table I are set forth, as well as the ratings for control panels (using no marine antifouling compound, and referred to in Table V as "Control") and panels using a standard commercial marine antifouling compound (with copper (I) oxide (Cu2 O) as the active agent and referred to in Table V as "STANDARD II").

Setting [4] is: bottom panel (black background), untreated Control 1.

Turning to `Cc1ccc(-n2ncc3c(c2=O)SC(C#N)=C(C#N)S3)cc1` [B, 5,6-dihydro-6-(4-methylphenyl)-5-oxo-1,4-dithiino-(2,3-d)-pyridazine-2,3-dicarbonitrile], the MIC in assay [1] (pH 6.8) is above 500 µg/mL; in assay [1] (pH 8.2), above 500 µg/mL; in assay [2] (pH 6.8, nutrient agar) it was 50 µg/mL (≈ 154 µM); in assay [2] (pH 8.2, nutrient agar) it was above 500 µg/mL; in assay [3] (pH 6.8, nutrient agar) it was below 10 µg/mL; in assay [3] (pH 8.2, nutrient agar), 25 µg/mL (≈ 77.1 µM). Further, in the assay with marine organism growth (setting [4]), the “Marine Antifouling Rating, 10 Week Test, Bottom Panel” value worked out at 4. For the same compound, in the assay on marine organism growth (top panel (white background)), the “Marine Antifouling Rating, 10 Week Test, Top Panel” value is recorded as 10. Further, the “Marine Antifouling Rating, 20 Week Test, Bottom Panel” value with marine organism growth (20 weeks, bottom panel (black background), untreated Control 1) turned out to be 1. The “Marine Antifouling Rating, 20 Week Test, Top Panel” value in the assay with marine organism growth (20 weeks, top panel (white background), untreated Control 1) was found to be 1.
On to `N#CC1=C(C#N)Sc2c(cnn(-c3ccc(Br)cc3)c2=O)S1` [C, 5,6-dihydro-6-(4-bromophenyl)-5-oxo-1,4-dithiino-(2,3-d)-pyridazine-2,3-dicarbonitrile], for which the MIC in assay [1] (pH 6.8) is above 500 µg/mL; in assay [1] (pH 8.2), above 500 µg/mL; in assay [2] (pH 6.8, nutrient agar), above 500 µg/mL; in assay [2] (pH 8.2, nutrient agar), above 500 µg/mL; in assay [3] (pH 6.8, nutrient agar), above 500 µg/mL; in assay [3] (pH 8.2, nutrient agar), above 500 µg/mL. Moreover, the “Marine Antifouling Rating, 10 Week Test, Bottom Panel” value in the assay with marine organism growth (setting [4]) was 1. Also, the “Marine Antifouling Rating, 10 Week Test, Top Panel” value with marine organism growth (top panel (white background)) was 7.
